The values below are quoted from earlier work in patent publication US10105415B2, “Compositions comprising granulocyte-macrophage colony-stimulating factor for the treatment of inflammatory bowel disease” (priority 2014, dated 2018).

For data set [1] the following is noted: oral / local.
Assay in data set [2]: not given
This is another data set of the same source.

For data set [3] the following is noted: given orally.
In data set [4] the test system is polymorphonuclear leukocytes.
Data set [5] deals with strains of organisms from the susceptible genera.
For data set [6], the system named is resistant bacterial strains. Conditions: controlled clinical trials, oral or intravenous.
For data set [7] the following is noted: adverse effect frequency.
In data set [8] the test system is Pseudomonas aeruginosa. Conditions: controlled clinical trials.
Data set [9] has as its system Crohn's disease. The settings on record: systemic (intravenous or subcutaneous), CD patients.
The conditions of data set [10]: given subcutaneously or infused intravenously for systemic effect.

For `C[C@@H]1O[C@@H]1P(=O)(O)O` [Fosfomycin calcium monohydrate], in [1], the tolerability / irritation entry was “less irritating to the stomach”. For the setting “0.4% solution”, the “pH of 0.4% solution” value is 8.1-9.6. In addition, in [2], the solubility in water entry was “sparingly soluble in water”. In addition, the bioavailability (in general, the share of a dose that reaches the circulation, judged against a reference dose that is usually intravenous) in data set [3] is on record as not below 12%.
`C[C@@H]1O[C@@H]1P(=O)(O)O` [Fosfomycin disodium]: the “pH of 5% solution” value is 9.0-10.5. Also, the tolerability / irritation result in [1] is listed as “locally irritant if un-neutralized”. Besides, the solubility in water result in data set [2] is on record as “highly soluble in water”. In addition, the bioavailability result in data set [3] is given as “high bioavailability”.
For `C[C@@H]1O[C@@H]1P(=O)(O)O.NC(CO)(CO)CO` [Fosfomycin trometamol], the “pH of 5% solution” value is listed as 3.5-5.5. Also, the tolerability / irritation result in data set [1] is given as “well tolerated”. Besides, the solubility in water entry in data set [2] is reported as “highly soluble in water”. Also, the bioavailability entry in data set [3] is “about 40%”.
As to `C[C@@H]1O[C@@H]1P(=O)(O)O` [Fosfomycin, [(2R,3S)-3-methyloxiran-2-yl]phosphonic acid], the “concentration in polymorphonuclear leukocytes relative to extracellular fluid” value in data set [4] was “twice”. In addition, the “synergistic effect, share of tested strains” value in data set [5] (early studies, various antibiotic combinations) is on record as 70-100%. Further, the synergy rates in data set [5] (subsequent more extensive studies) is given as 36-74%. In addition, in data set [6], the “appearance of resistant bacterial strains, overall” value is listed as 3.0%. In data set [7], the eosinophilia is recorded as 0.2%, the “transient rashes (evidence of allergy)” value is given as 0.3 % of cases and the “transiently raised liver enzymes” value was 0.3 % of cases. Moreover, the “appearance of resistant bacterial strains, maximum” value in [8] is on record as not above 15%.
With “GM-CSF: Monomeric glycoprotein of 127 amino-acid residues (SEQ ID NO: 2), colony-stimulating factor; recombinant forms regramostim, sargramostim, molgramostim”, the primary therapeutic endpoints entry in [9] is “failed to achieve their primary therapeutic endpoints”. In addition, in data set [10], the plasma concentrations achieved was more than 1 ng/mL.
